Measured values taken from patent publication US20070105840A1, “Pyrrolo-dihydroisoquinoline derivatives as pde10 inhibitors” (Altana Pharma AG, priority 2003, published 2007).

Compound | melting point [°C]
CCOC(=O)c1c(-c2cc(C)c(O)c(C)c2)c(C)n2c1-c1cc(OC)c(OC)cc1CC2C (racemic) [Example 5, (5RS)-(4-Hydroxy-3,5-dimethyl-phenyl)-8,9-dimethoxy-3,5-dimethyl-5,6-dihydro-pyrrolo[2,1-a]isoquinoline-1-carboxylic acid ethyl ester] | 158 to 161
CCOC(=O)c1c(-c2cc(C)c(O)c(C)c2)c(C)n2c1-c1cc(OC)c(OC)cc1CC2CC (racemic) [Example 6, (5RS)-5-Ethyl-2-(4-hydroxy-3,5-dimethyl-phenyl)-8,9-dimethoxy-3-methyl-5,6-dihydro-pyrrolo[2,1-a]isoquinoline-1-carboxylic acid ethyl ester] | 164 to 166
CCOC(=O)c1c(-c2cc(C)c(O)c(C)c2)c(CC)n2c1-c1cc(OC)c(OC)cc1CC2C (racemic) [Example 9, (5RS)-3-Ethyl-2-(4-hydroxy-3,5-dimethyl-phenyl)-8,9-dimethoxy-5-methyl-5,6-dihydro-pyrrolo[2,1-a]isoquinoline-1-carboxylic acid ethyl ester] | 188 to 190
CCOC(=O)c1c(-c2cc(OC)c(OC)c(OC)c2)c(C)n2c1-c1cc(OC)c(OC)cc1CC2C (racemic) [Example 10, (5RS)-8,9-Dimethoxy-3,5-dimethyl-2-(3,4,5-trimethoxy-phenyl)-5,6-dihydro-pyrrolo[2,1-a]isoquinoline-1-carboxylic acid ethyl ester] | 116 to 118
CCOC(=O)c1c(-c2cccc3ccccc23)c(C)n2c1-c1cc(OC)c(OC)cc1CC2C (racemic) [Example 11, (5RS)-8,9-Dimethoxy-3,5-dimethyl-2-naphthalen-1-yl-5,6-dihydro-pyrrolo[2,1-a]isoquinoline-1-carboxylic acid ethyl ester] | 184
CCOC(=O)c1c(-c2cccc3ccccc23)c(CCC(=O)OC)n2c1-c1cc(OC)c(OC)cc1CC2C (racemic) [Example 20, (5RS)-8,9-Dimethoxy-3-(2-methoxycarbonyl-ethyl)-5-methyl-2-naphthalen-1-yl-5,6-dihydro-pyrrolo[2,1-a]isoquinoline-1-carboxylic acid ethyl ester] | 56 to 59
CCOC(=O)c1c(-c2cc(C)c(O)c(C)c2)c(C)n2c1-c1cc(OC)c(OC)cc1C1CCCCC12 (stereo not drawn) [Example 8, (4aRS,8aRS)-cis-2-(4-hydroxy-3,5-dimethyl-phenyl)-10,11-dimethoxy-3-methyl-4a,5,6,7,8,8a-hexahydro-pyrrolo[2,1-f]phenanthridine-1-carboxylic acid ethyl ester] | 186 to 192
CCOC(=O)c1c(-c2cccc3ccccc23)c(C)n2c1-c1cc(OC)c(OC)cc1C1CCCCC12 (stereo not drawn) [Example 12, (4aRS,8aRS)-cis-10,11-Dimethoxy-3-methyl-2-naphthalen-1-yl-4a,5,6,7,8,8a-hexahydro-pyrrolo[2,1-f]phenanthridine-1-carboxylic acid ethyl ester] | 189 to 191
CCOC(=O)c1c(-c2ccnc3ccccc23)c(C)n2c1-c1cc(OC)c(OC)cc1C1CCCCC12 (stereo not drawn) [Example 13, (4aRS,8aRS)-cis-10,11-Dimethoxy-3-methyl-2-quinolin-4-yl-4a,5,6,7,8,8a-hexahydro-pyrrolo[2,1-f]phenanthridine-1-carboxylic acid ethyl ester] | 153 to 157
CCOC(=O)c1c(-c2cc(C)c(O)c(C)c2)c(C)n2c1-c1cc(OC)c(OC)c(OC)c1CC2C (stereo not drawn) [Example 18, (5RS)-2-(4-Hydroxy-3,5-dimethyl-phenyl)-7,8,9-bimethoxy-3,5-dimethyl-5,6-dihydro-pyrrolo[2,1-a]isoquinoline-1-carboxylic acid ethyl ester] | 144
COc1cc2c(cc1OC)-c1c(C#N)c(-c3cccc4ccccc34)c(C)n1CC2 [Example 22, 8,9-Dimethoxy-3-methyl-2-naphthalen-1-yl-5,6-dihydro-pyrrolo[2,1-a]isoquinoline-1-carbonitrile] | 226 to 229
COc1cc2c(cc1OC)-c1c(C#N)c(-c3ccnc4ccccc34)c(C)n1CC2 [Example 23, 8,9-Dimethoxy-3-methyl-2-quinolin-4yl-5,6-dihydro-pyrrolo[2,1-a]isoquinoline-1-carbonitrile] | 239 to 243
COc1cc2c(cc1OC)-c1c(C#N)c(-c3c[nH]c4ccccc34)c(C)n1CC2 [Example 24, 2-(1H-indol-3-yl)-8,9-dimethoxy-3-methyl-5,6-dihydro-pyrrolo[2,1-a]isoquinoline-1-carbonitrile] | 304 to 307
COc1cc2c(cc1OC)-c1c(C#N)c(-c3cc(C(C)(C)C)c(O)c(C(C)(C)C)c3)c(C)n1CC2 [Example 25, 2-(3,5-Di-tert-butyl-4-hydroxy-phenyl)-8,9-dimethoxy-3-methyl-5,6-dihydro-pyrrolo[2,1-a]isoquinoline-1-carbonitrile] | 250 to 252
COc1cc2c(cc1OC)-c1c(C#N)c(-c3ccncc3)c(C)n1C(C)C2 (centres unmarked) [Example 26, 8,9-Dimethoxy-3,5-dimethyl-2-pyridin-4-5,6-dihydro-pyrrolo[2,1-a]isoquinoline-1-carbonitrile] | 253 to 254

Results, then the compound that gave them:

melting point [°C] | Compound
208 to 209 | COC(=O)CCc1c(-c2cc(C)c(O)c(C)c2)c(C#N)c2n1C(C)Cc1cc(OC)c(OC)cc1-2 (centres unmarked) [Example 27, 3-[1-Cyano-2-(4-hydroxy-3,5-dimethyl)-8,9-dimethoxy-5-methyl-5,6-dihydro-pyrrolo[2,1-a]isoquinolin-3-yl]-propionic acid methyl ester]
268 to 270 | COc1cc2c(cc1OC)-c1c(C#N)c(-c3cc(C)c(O)c(C)c3)c(C)n1C(C)C2 (centres unmarked) [Example 28, 2-(4-Hydroxy-3,5-dimethyl-phenyl)-8,9-dimethoxy-3,5-dimethy-5,6-dihydro-pyrrolo[2,1-a]isoquinoline-1-carbonitrile]
191 to 193 | COC(=O)CCc1c(-c2ccncc2)c(C#N)c2n1CCc1cc(OC)c(OC)cc1-2 [Example 29, 3-(1-Cyano-8,9-dimethoxy-2-pyridin-4-yl-5,6-dihydro-pyrrolo[2,1-a]isoquinolin-3-yl)-propionic acid methyl ester]
166 to 168 | COc1cc2c(c(F)c1OC)CC(C)n1c(C)c(-c3cc(C)c(O)c(C)c3)c(C#N)c1-2 (centres unmarked) [Example 30, 7-Fluoro-2-(4-hydroxy-3,5-dimethyl-phenyl)-8,9-dimethoxy-3,5-dimethyl-5,6-dihydro-pyrrolo[2,1-a]isoquinoline-1-carbonitrile]
232 to 234 | COC(=O)CCc1c(-c2ccnc3ccccc23)c(C#N)c2n1CCc1cc(OC)c(OC)cc1-2 [Example 31, 3-(1-Cyano-8,9-dimethoxy-2-quinolin-4-yl-5,6dihydro-pyrrolo[2,1-a]isoquinolin-3-yl)-propionic acid methyl ester]
217 to 219 | COC(=O)CCc1c(-c2cc(C)c(O)c(C)c2)c(C#N)c2n1CCc1cc(OC)c(OC)cc1-2 [Example 32, 3-[1-Cyano-2-(4-hydroxy-3,5-dimethyl-phenyl)-8,9-dimethoxy-5,6-dihydro-pyrrolo[2,1-a]isoquinolin-3-yl]-propionic acid methyl ester]
219 to 221 | COc1cc2c(cc1OC)-c1c(C#N)c(-c3cn(S(C)(=O)=O)c4ccccc34)c(C)n1C(C)C2 (centres unmarked) [Example 40, 2-(1-Methanesulfonyl-1H-indol-3-yl)-8,9-dimethoxy-3,5-dimethyl-5,6-dihydro-pyrrolo[2,1-a]isoquinoline-1-carbonitrile]
279 to 282 | COc1cc2c(cc1OC)-c1c(C#N)c(-c3cc[n+]([O-])cc3)c(C)n1C(C)C2 (centres unmarked) [Example 41, 8,9-Dimethoxy-3,5-dimethyl-2-(1-oxy-pyridin-4-yl)-5,6-dihydro-pyrolo[2,1-a]isoquinoline-1-carbonitrile]
228 to 230 | COc1cc2c(cc1OC)-c1c(C#N)c(-c3cc(C)c(O)c(C)c3)c(CN3CCOCC3)n1C(C)C2 (centres unmarked) [Example 44, 2-(4-Hydroxy-3,5-dimethyl-phenyl)-8,9-dimethoxy-5-methyl-3-morpholin-4-ylmethyl-5,6-dihydro-pyrrolo[2,1-a]isoquinoline-1-carbonitrile]
187 to 189 | COc1cc2c(cc1OC)-c1c(C#N)c(-c3ccnc(C)c3)c(C)n1C(C)C2 (centres unmarked) [Example 45]
206 to 207 | COc1cc2c(cc1OC)-c1c(C#N)c(-c3ccc([N+](=O)[O-])cc3)c(C)n1C(C)C2 (centres unmarked) [Example 46, 8,9-Dimethoxy-3,5-dimethyl-2-(4-nitro-phenyl)-5,6-dihydro-pyrrolo[2,1-a]isoquinoline-1-carbonitrile]
287 to 289 | COc1cc2c(cc1OC)-c1c(C#N)c(-c3ccc(C(=O)O)cc3)c(C)n1C(C)C2 (centres unmarked) [Example 47, 4-(1-Cyano-8,9-dimethoxy-3,5-dimethyl-5,6-dihydro-pyrrolo[2,1-a]isoquinolin-2-yl)-benzoic acid]
237 to 239 | COc1cc2c(cc1OC)-c1c(C#N)c(-c3ccc(N)cc3)c(C)n1C(C)C2 (centres unmarked) [Example 48, 2-(4-Amino-phenyl)-8,9-dimethoxy-3,5-dimethyl-5,6-dihydm-pyrrolo[2,1-a]isoquinoline-1-carbonitrile]
232 to 233 | COc1cc2c(cc1OC)-c1c(C#N)c(-c3ccncc3C)c(C)n1C(C)C2 (centres unmarked) [Example 49, 8,9-Dimethoxy-3,5-dimethyl-2-(3-methyl-pyridin-4-yl)-5,6-dihydro-pyrrolo[2,1-a]isoquinoline-1-carbonitrile]
274 to 277 | CCOc1cc2c(cc1OC)-c1c(C#N)c(-c3ccc(C(=O)O)cc3)c(C)n1C(C)C2 (centres unmarked) [Example 50, 4-(1-Cyano-8-ethoxy-9-methoxy-3,5-dimethyl-5,6-dihydro-pyrrolo[2,1-a]isoquinolin-2-yl)-benzoic acid]
228 to 230 | COc1cc2c(cc1OC)-c1c(C#N)c(-c3ccc(O)cc3C)c(C)n1C(C)C2 (centres unmarked) [Example 51, 2-(4-Hydroxy-2-methyl-phenyl)-8,9-dimethoxy-3,5-dimethyl-5,6-dihydro-pyrrolo[2,1-a]isoquinoline-1-carbonitrile]
228 to 230 | COc1cc2c(cc1OC)-c1c(C#N)c(-c3ccc(C(N)=O)cc3)c(C)n1C(C)C2 (centres unmarked) [Example 52, 4-(1-Cyano-8,9-dimethoxy-3,5-dimethyl-5,6-dihydro-pyrrolo[2,1-a]isoquinolin-2-yl)-benzamide]
